Data as given in US20210183469A9, “COMPUTATIONAL PLATFORM FOR IN SILICO COMBINATORIAL SEQUENCE SPACE EXPLORATION AND ARTIFICIAL EVOLUTION OF PEPTIDES” (priority 2018, published 2021).
pIC50: −log10 of the molar value. No end group written: not given here.

Legend:
human erythrocytes = test: Hemolytic assay; conditions: 1 h at 37° C., 100% of hemolysis was not observed
Protocol: (§2) Fresh human venous blood was collected from volunteers in Vacutainer collection tubes containing sodium heparin as an anticoagulant (BD Biosciences, Franklin Lakes, N.J.). The blood was centrifuged at 1500 rpm and the serum was removed and the blood cells were replaced and washed 3 times with the same volume of sterile NaCl 0.85% solution. Concentrated red blood cells were diluted tenfold in NaCl 0.85% solution and then exposed at two-fold dilutions of peptides for 1 h at 37° C., at identical concentrations used for antimicrobial assays, in the ratio of 1:1 (v/v), achieving a final volume of 100 uL. The assay was carried out in 96-well polypropylene microtiter plates. The positive control wells contained 1% of Triton X-100, representing 100% cell lysis, and negative control wells contained sterile saline. Hemoglobin release was monitored chromogenically at 546 nm using a microplate reader.

[1] = test system: Listeria ivanovii Li4pVS2
Protocol: Staphylococcus aureus ATCC 25923, Enterococcus faecalis ATCC 29212, Escherichia coli ATCC 25922, Pseudomonas aeruginosa ATCC 27853, Acinetobacter baumannii ATCC 19606 and Klebsiella pneumoniae ATCC 13883 were cultured in Lysogeny Broth (LB). The bacteria Streptococcus pyogenes ATCC 19615 and Listeria ivanovii Li 4pVS2 were cultured in Brain Heart Infusion (BHI) broth, whereas Candida species (C. albicans ATCC 90028 and C. parapsilosis ATCC 22019) were cultured in Yeast Peptone Dextrose (YPD) medium. Logarithmic phase culture of bacteria and yeasts were centrifuged and suspended in MH (Mueller Hinton) broth to an A630 of 0.01 (˜10^6 CFU·mL^−1), except for S. pyogenes, L. ivanovii and E. faecalis that were suspended in their respective growth medium. […] After 18 h incubation at 37° C. (30° C. for yeasts), the antimicrobial susceptibility was monitored by measuring the change in A630 using a microplate reader (UVM 340, Asys Hitech). […] Each experiment was performed in triplicate with positive (0.7% formaldehyde) and negative (without peptide) inhibition controls.

HEK-293 cells = test: Cytotoxicity, MTT-based microassay; format: cell-based, human; conditions: 72 h, read-out: Active Concentration (inhibitory concentration 50, IC50)
Protocol: HEK-293 cells were cultured in DMEM medium, and incubated at 37° C. in a humidified atmosphere of 5% CO2. Cell viability was quantified after peptide incubation using a methylthiazolyldiphenyl-tetrazolium bromide (MTT)-based microassay (Riss et al., (eds. Sittampalam, G. et al.) (Bethesda (Md.), 2004)). […] Then, 10 μl of MTT (5 mg·mL^−1 in PBS) was added to each well and the cells were further incubated for 4 h in the dark. The formazan crystals formed by mitochondrial reductases in intact cells are insoluble in aqueous solutions and precipitate. Formazan crystals were dissolved using a solubilization solution (40% dimethylformamide in 2% glacial acetic acid, 16% sodium dodecyl sulfate, pH 4.7) followed by 1 h incubation at 37° C. under shaking (150 rpm). Finally, the absorbance of the resuspended formazan was measured at 570 nm. Data were analyzed with GraphPad Prism® 5.0 software to determine the inhibitory concentration 50 (IC50), which corresponds to the peptide concentration producing 50% cell death. Results were expressed as the mean of three independent experiments performed in triplicate.

in vitro = conditions: human
Protocol: as §2

[2] = test system: Escherichia coli ATCC 25922; test: MIC, two-fold serial dilution in microtitre plates; format: cell-based; conditions: average of three independent experiments
Protocol: (§1) After 18 h incubation at 37° C.

[3] = test system: Acinetobacter baumannii ATCC 19606; test: MIC, two-fold serial dilution in microtitre plates; format: cell-based
Protocol: as §1

E. coli (ATCC 25922) = test: Membrane polarization assay with DiSC3(5); format: cell-based, Escherichia coli; conditions: melittin positive control
Protocol: When the cytoplasmic membrane is intact, the fluorescent probe DiSC3(5) accumulates into the cytoplasmic membrane and then aggregates, causing self-quenching of the fluorescence. In the presence of a membrane-depolarizing agent, DiSC3(5) is released into the medium, leading to an increase in fluorescence that can be monitored over time. The experiment was performed as previously described (André et al., ACS Chem. Biol. 2015 Jul. 30; 10(10): 2257-66). Briefly, exponentially growing bacteria were centrifuged (1000×g, 10 min, 4° C.), washed with PBS and re-suspended in the same buffer to an A630 of 0.1; then 700 µL of bacteria were pre-incubated with 1 μM DiSC3(5) in the dark during 10 min at 37° C., and then 100 μL of 1 mM KCl were added in order to equilibrate the cytoplasmic and external K+ concentrations. […] Three independent experiments were performed and results correspond to a representative experiment with negative (PBS) and positive (melittin) controls.

E. coli ATCC 25922 = test: SYTOX Green uptake assay (cytoplasmic membrane permeabilization); format: cell-based, Escherichia coli; conditions: 5 μM, positive control
Protocol: The guavanin 2-induced permeabilization of the bacterial cytoplasmic plasma membrane of E. coli ATCC 25922 was determined by fluorometric measurement of SYTOX green (SG) influx (Thevissen et al., Appl. Environ. Microbiol. 1999 December; 65(12): 5451-8). SG is a high-affinity nucleic acid dye that is impermeant to live cells. When the cell membrane is damaged, this dye penetrates into the cell and binds to intracellular DNA, leading to an increase in fluorescence. For SG uptake assay, exponentially growing bacteria (6×10^5 CFU·mL^−1) were re-suspended in PBS after centrifugation (1000×g, 10 min, 4° C.) and washing steps. 792 μL of the bacterial suspension was pre-incubated with 8 μL of 100 μM SG during 30 min at 37° C. in the dark. […] Three independent experiments were performed and results correspond to a representative experiment with negative (PBS) and positive (melittin) controls.

[4] = test system: bioluminescent engineered P. aeruginosa strain H1001; test: Antimicrobial activity by bioluminescence assay (SPOT-synthesized peptides); format: cell-based, Pseudomonas aeruginosa; conditions: SPOT-synthesized unpurified crude peptide (~70% purity)
Protocol: A peptide array composed of 20 peptides (15 guavanins, 4 Pg-AMP1 fragments and magainin 2) was designed and synthesized by Kinexus Bioinformatics Corporation (Vancouver, BC). Peptides were produced in a standard mass of 80 μg by using cellulose support in SPOT technology, as previously described by Winkler et al. Methods Mol. Biol. 2009; 570: 157-74. The crude synthetic peptides were obtained from cellulose membrane discs that had already been treated with ammonia gas to release the peptides from the membrane. Peptides were then dissolved overnight in distilled water and subsequently evaluated for their biological activities, as described below.
The antimicrobial activity of the synthesized peptides was evaluated against an engineered luminescent Pseudomonas aeruginosa H1001 strain in 96-well microplates, as described previously with a few modifications (Hilpert & Hancock, Nat. Protoc. 2007; 2(7): 1652-60). […] Luminescence was measured on a Tecan […]luor Plus Microplate Reader (Tecan US, Morrisville, N.C.). The antimicrobial activity was evaluated by the ability of the peptides to reduce the luminescence of P. aeruginosa-lux strain compared to untreated cells. […]

Compound	Hemolysis (human erythrocytes)	further results
RAYMEALRQAERLGNRTARR-NH2 [Guavanin 9]	>200 µg/mL	–
RQYMRYLEQAERYVNRNLRR-NH2 [Guavanin 4]	>200 µg/mL	–
RQYMRQIEQALRYGYRISRR-NH2 [Guavanin 2]	>200 µg/mL	Active Concentration (MIC) [1]: 50 µM; pIC50 (HEK-293 cells): < 3.70; CC50 at 1 h (in vitro): > 200 µM; Active Concentration (MIC) [2]: 6.25 µM; Active Concentration (MIC) [3]: 6.25 µM
RQLMELIEQAERYGNRFYRR-NH2 [Guavanin 11]	>200 µg/mL	–
RRGMKQYERISRDANRSYRR-NH2 [Guavanin 1]	>200 µg/mL	–
RKLVECYERAERDANRSGRR-NH2 [Guavanin 15]	>200 µg/mL	–
RSIMELYKQASRSFNRGIRR-NH2 [Guavanin 6]	>200 µg/mL	–
RSYYEAYERALRKGQRGIRR-NH2 [Guavanin 8]	>200 µg/mL	–
RKLMELYEQAIRYGKRSYRR-NH2 [Guavanin 12]	>200 µg/mL	–
RSFMKCYEQASRYGNRILRR-NH2 [Guavanin 14]	>200 µg/mL	–
CC[C@H](C)[C@H](NC(=O)CN)C(=O)NCC(=O)N[C@@H](C)C(=O)N[C@H](C(=O)N[C@@H](CC(C)C)C(=O)N[C@@H](CCCCN)C(=O)N[C@H](C(=O)N[C@@H](CC(C)C)C(=O)N[C@H](C(=O)N[C@H](C(=O)NCC(=O)N[C@@H](CC(C)C)C(=O)N1CCC[C@H]1C(=O)N[C@@H](C)C(=O)N[C@@H](CC(C)C)C(=O)N[C@H](C(=O)N[C@@H](CO)C(=O)N[C@@H](Cc1c[nH]c2ccccc12)C(=O)N[C@H](C(=O)N[C@@H](CCCCN)C(=O)N[C@@H](CCCNC(=N)N)C(=O)N[C@@H](CCCCN)C(=O)N[C@@H](CCCNC(=N)N)C(=O)N[C@@H](CCC(N)=O)C(=O)N[C@@H](CCC(N)=O)C(N)=O)[C@@H](C)CC)[C@@H](C)CC)[C@@H](C)O)[C@@H](C)O)C(C)C)C(C)C [melittin]	–	DiSC3(5) fluorescence (membrane potential) (E. coli (ATCC 25922)): rapid increase in the fluorescence signal; SYTOX Green (SG) fluorescence signal (E. coli ATCC 25922): rapid and maximal SG fluorescence signal
RQIYESIEQALRRGYRSYRR-NH2 [Guavanin 7]	>200 µg/mL	–
H-GIGKFLHSAKKFGKAFVGEIMNS-OH [Magainin 2, reference compound]	>200 µg/mL	MIC [4]: 100 µg/mL
SSRMECYEQAERYGYGGYGG-NH2 [Fragment 1]	>200 µg/mL	–
RKLMEMYEEAFRYFNRISRR-NH2 [Guavanin 5]	>200 µg/mL	–
GQPVGQGVERSHDDNRNQPR-NH2 [Fragment 4]	>200 µg/mL	–
RRYMECYEQAERYFRRFGRR-NH2 [Guavanin 13]	>200 µg/mL	–
N=C(N)NCCC[C@H](NC(=O)CNC(=O)[C@H](CO)NC(=O)CNC(=O)[C@H](Cc1ccc(O)cc1)NC(=O)CNC(=O)CNC(=O)CNC(=O)[C@H](Cc1ccc(O)cc1)NC(=O)[C@H](CCCNC(=N)N)NC(=O)CNC(=O)CNC(=O)CNC(=O)[C@H](Cc1ccc(O)cc1)NC(=O)CNC(=O)CNC(=O)[C@H](Cc1ccc(O)cc1)NC(=O)CNC(=O)[C@@H](N)Cc1ccc(O)cc1)C(=O)NCC(N)=O [Fragment 3]	>200 µg/mL	–
RYLMEYAEQAKRDAKRAYRR-NH2 [Guavanin 10]	>200 µg/mL	–
RYGYGGYGGGRYGGGYGSGR-NH2 [Fragment 2]	100 µg/mL	Hemolysis (human erythrocytes; listed as 2nd fragment): hemolytic
RKYMRQYEEAIRDGNRSIRR-NH2 [Guavanin 3]	>200 µg/mL	–
